From US10189813B2, “Formylated N-heterocyclic derivatives as FGFR4 inhibitors” (NOVARTIS AG, priority 2015, dated 2019)
pIC50: −log10 of the molar value.

Columns and labels:
[1] = system: HuH-7 hepatocellular carcinoma cells; test: CellTiter Glo (CTG) proliferation/viability assay; assay type: cell-based; conditions: HuH-7 cells, 3 days, half-maximal growth inhibition (GI50), read-out: HUH7 proliferation CTG
Description: CellTiter Glo (CTG) Assay:
The functional effect of compounds on cell proliferation is assessed using HuH-7 hepatocellular carcinoma cells obtained from the Japanese Collection of Research Bioresources Cell Bank (Cat# JCRB0403) and cultured in the vendor-recommended medium (DMEM high glucose (Amimed Cat#1-26F01-I), 10% foetal calf serum (Invitrogen Cat#16140-071), 1 mM sodium pyruvate (Amimed Cat#5-60F00-H), 1× Penicillin/Streptomycin (Amimed Cat#4-01F00-H)) at 37° C. in a humidified 5% CO2 incubator. Compound-mediated suppression of cell proliferation/viability is assessed by quantification of cellular ATP levels using the CellTiter-Glo (CTG) reagent (Promega, Cat# G7573). Briefly, cells are seeded at 3′000 cells/well/80 μl fresh medium into tissue-culture-treated 96-well plates (Costar Cat#3904), followed by addition of 20 μl medium containing compound dilutions at 5-fold their final intended concentration. Dose-response effects are assessed by 3-fold serial dilutions of the test compound, starting at 10 μM. Following incubation of the cells for 3 days at 37° C. and 5% CO2, the effect of inhibitors on cell viability is quantified following addition of 50 μl CTG and luminescence measurement (integration time: 500 ms) as per vendor manual, using a correspondingly equipped multi-mode plate reader (M200Pro, TECAN, Switzerland). For data analysis, the assay background value determined in wells containing medium, but no cells, is subtracted from all data points. To enable differentiation of cytotoxic from cytostatic compounds, the number of viable cells is assessed relative to that observed at the time of compound addition using a separate cell plate (day 0). The effect of a particular test compound concentration on cell proliferation/viability is expressed as percentage of the background- and day 0-corrected luminescence reading obtained for cells treated with vehicle only (DMSO, 0.1% f.c.), which is set as 100%, whereas the luminescence reading for wells containing medium only, but no cells, is set as −100%. Compound concentrations leading to half-maximal growth inhibition (GI50) are determined using standard four parameter curve fitting (XLfit 5.2., IDBS, UK).

[2] = molecular target: T1, FGFR2 (406-821) (Homo sapiens, UniProt P21802); test: In vitro biochemical assay for FGFR2
T1 construct: FGFR2 (406-821)
T1 sequence (P21802 406-821): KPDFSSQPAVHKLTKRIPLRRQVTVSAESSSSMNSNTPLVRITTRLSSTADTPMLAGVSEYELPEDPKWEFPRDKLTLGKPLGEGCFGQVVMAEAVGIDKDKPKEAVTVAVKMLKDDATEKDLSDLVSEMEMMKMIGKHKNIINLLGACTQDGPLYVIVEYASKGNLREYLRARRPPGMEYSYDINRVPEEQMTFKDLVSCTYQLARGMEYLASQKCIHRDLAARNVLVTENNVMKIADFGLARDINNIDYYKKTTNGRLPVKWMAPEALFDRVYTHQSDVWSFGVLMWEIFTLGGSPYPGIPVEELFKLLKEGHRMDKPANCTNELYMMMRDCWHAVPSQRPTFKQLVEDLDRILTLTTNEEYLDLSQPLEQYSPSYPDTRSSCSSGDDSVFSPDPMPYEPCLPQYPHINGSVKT
Description: (§1) Liquid handling and incubation steps were done on an Innovadyne Nanodrop Express equipped with a robotic arm (Thermo CatX, Caliper Twister II) and an incubator (Liconic STX40, Thermo Cytomat 2C450). The assay plates were prepared by addition of 50 nI per well of compound solution in 90% DMSO. […] Kinase reactions were incubated at 30° C. for 60 minutes and subsequently terminated by addition of 16 μl per well of stop solution (100 mM HEPES pH 7.5, 5% DMSO, 0.1% Caliper coating reagent, 10 mM EDTA, and 0.015% Brij35). Plates with terminated kinase reactions were transferred to the Caliper LC3000 workstations for reading. Phosphorylated and unphosphorylated peptides were separated using the Caliper microfluidic mobility shift technology. Briefly, samples from terminated kinase reactions were applied to the chip. Analytes are transported through the chip by constant buffer flow and the migration of the substrate peptide is monitored by the fluorescence signal of its label. Phosphorylated peptide (product) and unphosphorylated peptide (substrate) are separated in an electric field by their charge/mass ratio. Kinase activities were calculated from the amounts of formed phospho-peptide. IC50 values were determined from percent inhibition values at different compound concentrations by non-linear regression analysis.
(§2) In vitro biochemical assays for FGFR1 (407-822), FGFR2 (406-821) and FGFR3 (411-806) were conducted in a similar manner to the in vitro biochemical assay for FGFR4 described above, using the indicated portions of the kinase domains. The following examples all produced IC50 values >10000 nM in the biochemical FGFR1, FGFR2 and FGFR3 assays: 2, 3, 4, 11, 13, 16, 17, 18, 20, 28, 30.

[3] = molecular target: T2, FGFR1 (407-822) (Homo sapiens, UniProt P11362); test: In vitro biochemical assay for FGFR1
T2 construct: FGFR1 (407-822)
T2 sequence (P11362 407-822): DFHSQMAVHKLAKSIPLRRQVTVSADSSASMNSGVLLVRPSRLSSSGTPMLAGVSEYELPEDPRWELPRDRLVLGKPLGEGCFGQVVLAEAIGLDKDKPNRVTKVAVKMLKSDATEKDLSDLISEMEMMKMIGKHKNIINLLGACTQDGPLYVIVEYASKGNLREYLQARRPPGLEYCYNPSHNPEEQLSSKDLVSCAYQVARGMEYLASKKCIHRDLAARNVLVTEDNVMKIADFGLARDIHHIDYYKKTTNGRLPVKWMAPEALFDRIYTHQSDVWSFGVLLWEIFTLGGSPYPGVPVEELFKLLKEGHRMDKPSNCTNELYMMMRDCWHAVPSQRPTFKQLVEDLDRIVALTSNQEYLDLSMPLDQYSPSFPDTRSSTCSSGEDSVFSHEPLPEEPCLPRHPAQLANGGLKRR
Description: as §1, §2

[4] = molecular target: T3, FGFR4 (GST-FGFR4(388-802)) (Homo sapiens, UniProt P22455); test: In-vitro biochemical kinase assay for FGFR4 (Caliper mobility shift); conditions: 60 minutes at 30° C.
T3 construct: GST-FGFR4(388-802); GST (N); made in house; host or cells: insect cells
T3 sequence (P22455 388-802): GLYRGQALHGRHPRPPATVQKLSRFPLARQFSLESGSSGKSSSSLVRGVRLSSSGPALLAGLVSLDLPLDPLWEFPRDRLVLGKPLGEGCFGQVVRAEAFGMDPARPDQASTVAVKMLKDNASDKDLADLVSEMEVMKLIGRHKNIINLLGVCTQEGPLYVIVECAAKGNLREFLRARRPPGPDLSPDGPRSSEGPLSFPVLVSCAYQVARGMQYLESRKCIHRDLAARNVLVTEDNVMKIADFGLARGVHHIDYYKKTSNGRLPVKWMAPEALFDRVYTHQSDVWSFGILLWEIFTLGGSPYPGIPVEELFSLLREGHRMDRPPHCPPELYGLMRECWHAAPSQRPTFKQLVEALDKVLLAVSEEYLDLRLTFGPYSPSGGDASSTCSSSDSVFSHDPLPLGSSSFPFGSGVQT
Description: In-Vitro Biochemical Kinase Assays for FGFR4
All assays were performed in 384 well microtiter plates. Each assay plate contained 8-point serial dilutions for 40 test compounds, as well as four 8-point serial dilutions of staurosporine as reference compound, plus 16 high and 16 low controls.
as §1
Preparation of Compound Dilutions
Test compounds were dissolved in DMSO (10 mM) and transferred into 1.4 mL flat bottom or V-shaped Matrix tubes carrying a unique 2D matrix. The stock solutions were stored at […] if not used immediately. For the test procedure the vials were defrosted and identified by a scanner whereby a working sheet was generated that guided the subsequent working steps.
Compound dilutions were made in 96 well plates. This format enabled the assay of maximally 40 individual test compounds at 8 concentrations (single points) including 4 reference compounds. The dilution protocol included the production of “pre-dilution plates”, “master plates” and “assay plates”.
96 polypropylene well plates were used as pre-dilution plates. A total of 4 pre-dilution plates were prepared including 10 test compounds each on the plate positions A1-A10, one standard compound at A11 and one DMSO control at A12. All dilution steps were done on a HamiltonSTAR robot.
These plates were used directly for the assay which was performed in a total volume of 9.05 μL.

[5] = system: HuH-7 hepatocellular carcinoma cells; test: Methylene blue staining proliferation assay (MBS); assay type: cell-based; conditions: Homo sapiens, HuH-7 cells, 72 hours, read-out: HUH7 proliferation MBS
Description: Methylene Blue Staining Proliferation Assay (MBS):
The effect of compounds on cell proliferation is assessed using HuH-7 hepatocellular carcinoma cells obtained from the Japanese Collection of Research Bioresources Cell Bank (Cat# JCRB0403) and cultured in the vendor-recommended medium (DMEM high glucose (Amimed Cat#1-26F01-I), 10% foetal calf serum (Invitrogen Cat#16140-071), 1 mM sodium pyruvate (Amimed Cat#5-60F00-H), 1× Penicillin/Streptomycin (Amimed Cat#4-01F00-H)) at 37° C. in a humidified 5% CO2 incubator. […] 72 hours after compound addition, cells were fixed by adding 25 μL/well of 20% glutaraldehyde (Sigma Aldrich Cat# G400-4) and incubated for 10 minutes at room temperature. Cells were washed three times with H2O, 200 μL/well and stained with 100 μL/well 0.05% methylene blue (ABCR GmbH Cat# AB117904) for 10 minutes at room temperature. Cells were washed 3 times with H2O, 200 μL/well and then lysed by adding 200 μL/well of 3% HCl (Fluka Cat#84422) for 30 minutes at room temperature with shaking. Optical density was measured at A650 nm. The concentration of compound providing 50% of proliferation inhibition with respect to DMSO-treated cells was determined (IC50) using XLFit software.

[6] = molecular target: BaF3-Tel-FGFR4 cells (TEL fused to cytoplasmic domain of FGFR4) (Homo sapiens, UniProt P22455); test: In vitro cellular kinase assay for FGFR4 (BaF3-Tel-FGFR4, MSD capture ELISA of tyrosine phosphorylation); conditions: 1 hour incubation
BaF3-Tel-FGFR4 cells (TEL fused to cytoplasmic domain of FGFR4), sequence (P22455 with tags, fused parts or gaps): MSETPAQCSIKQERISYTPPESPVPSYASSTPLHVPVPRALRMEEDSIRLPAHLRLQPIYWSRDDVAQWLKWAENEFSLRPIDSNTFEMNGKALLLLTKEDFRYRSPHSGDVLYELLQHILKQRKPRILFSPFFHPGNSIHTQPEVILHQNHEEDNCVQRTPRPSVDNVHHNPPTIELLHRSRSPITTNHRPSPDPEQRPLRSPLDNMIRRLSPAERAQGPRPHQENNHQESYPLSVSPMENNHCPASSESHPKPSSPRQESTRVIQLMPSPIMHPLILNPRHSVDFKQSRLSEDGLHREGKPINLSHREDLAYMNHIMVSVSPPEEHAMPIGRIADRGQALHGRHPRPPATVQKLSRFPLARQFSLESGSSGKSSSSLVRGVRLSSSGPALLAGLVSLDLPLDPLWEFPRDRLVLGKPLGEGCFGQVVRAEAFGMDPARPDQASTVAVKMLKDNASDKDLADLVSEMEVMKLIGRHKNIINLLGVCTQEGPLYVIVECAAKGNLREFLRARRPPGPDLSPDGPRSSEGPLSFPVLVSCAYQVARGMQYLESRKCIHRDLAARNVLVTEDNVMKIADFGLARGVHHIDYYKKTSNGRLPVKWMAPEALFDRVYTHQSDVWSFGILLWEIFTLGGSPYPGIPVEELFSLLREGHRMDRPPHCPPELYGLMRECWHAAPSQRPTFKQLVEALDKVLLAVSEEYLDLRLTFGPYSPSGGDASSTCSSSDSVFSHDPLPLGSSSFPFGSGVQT

[7] = molecular target: T4, FGFR3 (411-806) (Homo sapiens, UniProt P22607); test: In vitro biochemical assay for FGFR3
T4 construct: FGFR3 (411-806)
T4 sequence (P22607 411-806): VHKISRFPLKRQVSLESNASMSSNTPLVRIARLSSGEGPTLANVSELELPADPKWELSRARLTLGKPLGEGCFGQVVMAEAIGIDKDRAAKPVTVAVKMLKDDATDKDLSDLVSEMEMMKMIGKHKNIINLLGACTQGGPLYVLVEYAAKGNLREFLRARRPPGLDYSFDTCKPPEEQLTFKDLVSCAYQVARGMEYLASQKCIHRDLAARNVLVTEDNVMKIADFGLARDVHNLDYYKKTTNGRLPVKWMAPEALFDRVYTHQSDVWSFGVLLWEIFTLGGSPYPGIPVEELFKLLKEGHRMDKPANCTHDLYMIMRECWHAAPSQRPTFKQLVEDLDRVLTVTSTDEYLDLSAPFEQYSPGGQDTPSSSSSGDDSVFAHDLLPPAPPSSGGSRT
Description: as §1, §2

| SMILES | pIC50 ([1]; Homo sapiens, Huh-7, 72 h) | pIC50 [2] | pIC50 [3] | pIC50 [4] | pIC50 [5] | pIC50 [6] | pIC50 [7] | pIC50 [1] |
| --- | --- | --- | --- | --- | --- | --- | --- | --- |
| CC(C)Oc1cc(NC(=O)N(C)c2ccc(CN3CCN(C)CC3)c(C=O)n2)ncc1C#N [Example 17, 3-(5-cyano-4-isopropoxypyridin-2-yl)-1-(6-formyl-5-((4-methylpiperazin-1-yl)methyl)pyridin-2-yl)-1-methylurea] | 5.56 | < 5.00 | < 5.00 | 7.54 | – | 6.84 | < 5.00 | – |
| COCCNc1cc(Nc2ccnn2-c2ccc(-c3cnn(C)c3)c(C=O)n2)ncc1C(F)(F)F [Example 28, 6-(5-((4-((2-methoxyethyl)amino)-5-(trifluoromethyl)pyridin-2-yl)amino)-1H-pyrazol-1-yl)-3-(1-methyl-1H-pyrazol-4-yl)picolinaldehyde] | < 5.52 | < 5.00 | < 5.00 | 6.32 | – | 5.58 | < 5.00 | 5.58 |
| CC(C)Oc1cc(NC(=O)N(C)c2ccc(C(F)F)c(C=O)n2)ncc1C#N [Example 18, 3-(5-cyano-4-isopropoxypyridin-2-yl)-1-(5-(difluoromethyl)-6-formylpyridin-2-yl)-1-methylurea] | 6.33 | < 5.00 | < 5.00 | 8.72 | 6.72 | 7.60 | < 5.00 | – |
| COCCNc1cc(NC(=O)N(C)c2ccc(CN3CCCC3=O)c(C=O)n2)ncc1C#N [Example 20, 3-(5-cyano-4-((2-methoxyethyl)amino)pyridin-2-yl)-1-(6-formyl-5-((2-oxopyrrolidin-1-yl)methyl)pyridin-2-yl)-1-methylurea] | 7.00 | < 5.00 | < 5.00 | 8.37 | – | 8.28 | < 5.00 | – |
| CCN(C(=O)Nc1cc(NCCOC)c(C#N)cn1)c1ccc(-c2cnn(C)c2)c(C=O)n1 [Example 10, 3-(5-cyano-4-((2-methoxyethyl)amino)pyridin-2-yl)-1-ethyl-1-(6-formyl-5-(1-methyl-1H-pyrazol-4-yl)pyridin-2-yl)urea] | – | – | – | 8.00 | 5.96 | 7.89 | – | – |
| CC(C)Oc1cc(NC(=O)Nc2nccc(C=O)n2)ncc1C#N [Example 30, 1-(5-cyano-4-isopropoxypyridin-2-yl)-3-(4-formylpyrimidin-2-yl)urea] | < 5.52 | < 5.00 | < 5.00 | 7.00 | – | 6.01 | < 5.00 | – |

Further lines, results first:

| pIC50 ([1]; Homo sapiens, Huh-7, 72 h) | pIC50 [2] | pIC50 [3] | pIC50 [4] | pIC50 [5] | pIC50 [6] | pIC50 [7] | pIC50 [1] | SMILES |
| --- | --- | --- | --- | --- | --- | --- | --- | --- |
| 7.05 | < 5.00 | < 5.00 | 8.57 | 7.29 | 8.11 | < 5.00 | – | COCCNc1cc(NC(=O)N(C)c2ccc(C(F)F)c(C=O)n2)ncc1C#N [Example 16, 3-(5-cyano-4-((2-methoxyethyl)amino)pyridin-2-yl)-1-(5-(difluoromethyl)-6-formylpyridin-2-yl)-1-methylurea] |
| 6.18 | < 5.00 | < 5.00 | 8.24 | – | 7.28 | < 5.00 | – | COCCNc1cc(NC(=O)N(C)c2ccc(-c3cnn(C)c3)c(C=O)n2)ncc1C#N [Example 13, 3-(5-cyano-4-((2-methoxyethyl)amino)pyridin-2-yl)-1-methyl-1-(6-formyl-5-(1-methyl-1H-pyrazol-4-yl)pyridin-2-yl)urea] |
| 6.97 | – | – | – | 7.60 | 8.32 | – | – | COCCNc1cc(NC(=O)N(C)c2ccc(CN(C)C(C)=O)c(C=O)n2)ncc1C#N [Example 15, N-((6-(3-(5-cyano-4-((2-methoxyethyl)amino)pyridin-2-yl)-1-methylureido)-2-formylpyridin-3-yl)methyl)-N-methylacetamide] |
| < 5.52 | – | – | 8.89 | < 5.52 | 5.90 | – | – | COCCNc1cc(NC(=O)N(C)c2ccc(C(=O)O)c(C=O)n2)ncc1C#N [Example 9, 6-(3-(5-cyano-4-((2-methoxyethyl)amino)pyridin-2-yl)-1-methylureido)-2-formylnicotinic acid] |
